Results from ChEMBL document CHEMBL1141299, “Hologram QSAR model for the prediction of human oral bioavailability” (Bioorg Med Chem, 2007).

Assay: Oral bioavailability in human
Settings: in vivo
`Cc1c(OCC(F)(F)F)ccnc1C[S+]([O-])c1nc2ccccc2[nH]1` (stereo unspecified) [LANSOPRAZOLE] gave a bioavailability of 80%. In the case of `CCN[C@H](C)Cc1cccc(C(F)(F)F)c1` [LEVOFENFLURAMINE], the bioavailability is reported as 89%. `CCC(=O)C(C[C@@H](C)N(C)C)(c1ccccc1)c1ccccc1` [LEVOMETHADONE] showed a bioavailability of 92%. `CC[C@H](OC(C)=O)C(C[C@H](C)N(C)C)(c1ccccc1)c1ccccc1` [LEVOMETHADYL ACETATE] showed a bioavailability of 47%. `CN1C[C@H](CNC(=O)OCc2ccccc2)C[C@@H]2c3cccc4c3c(cn4C)C[C@H]21` [METERGOLINE] showed a bioavailability of 23%. With `CC[C@@H](CO)NC(=O)[C@@H]1C=C2c3cccc4c3c(cn4C)C[C@H]2N(C)C1` [METHYSERGIDE] the bioavailability was 13%. For `Cc1ncc2n1-c1ccc(Cl)cc1C(c1ccccc1F)=NC2` [MIDAZOLAM], the bioavailability was 40.5%. For `COc1c(N2C[C@@H]3CCCN[C@@H]3C2)c(F)cc2c(=O)c(C(=O)O)cn(C3CC3)c12` [MOXIFLOXACIN], the bioavailability was 90%. For `Oc1ccc2c3c1O[C@H]1[C@@H](O)CC[C@@]4(O)[C@@H](C2)N(CC2CCC2)CC[C@]314` [NALBUPHINE], the bioavailability was 11%. Work on `C=CCN1CC[C@]23c4c5ccc(O)c4O[C@H]2C(=O)CC[C@@]3(O)[C@H]1C5` [NALOXONE] yielded a bioavailability of 2%. Compound `O=C1CC[C@@]2(O)[C@H]3Cc4ccc(O)c5c4[C@@]2(CCN3CC2CC2)[C@H]1O5` [NALTREXONE] has a bioavailability of 20%. Compound `Cc1ccnc2c1NC(=O)c1cccnc1N2C1CC1` [NEVIRAPINE] has a bioavailability of 93%. Compound `COC(=O)C1=C(C)NC(C)=C(C(=O)OC)C1c1ccccc1[N+](=O)[O-]` [NIFEDIPINE] has a bioavailability of 50%. `O=C1CN=C(c2ccccc2)c2cc([N+](=O)[O-])ccc2N1` [NITRAZEPAM] showed a bioavailability of 78%. With `C[C@H](N)Cc1cccc(C(F)(F)F)c1` [NORDEXFENFLURAMINE] the bioavailability was 85%. Compound `CCOC(=O)C1=C[C@@H](OC(CC)CC)[C@H](NC(C)=O)[C@@H](N)C1` [OSELTAMIVIR] has a bioavailability of 75%. Compound `c1ccc(C2(N3CCCCC3)CCCCC2)cc1` [PHENCYCLIDINE] has a bioavailability of 72%. Compound `CCC1(c2ccccc2)C(=O)NC(=O)NC1=O` [PHENOBARBITAL] has a bioavailability of 96%. With `CCC(C(N)=O)(C(N)=O)c1ccccc1` [PHENYLETHYLMALONAMIDE] the bioavailability was 91%. `CNC(=O)Oc1ccc2c(c1)[C@]1(C)CCN(C)[C@@H]1N2C` [PHYSOSTIGMINE] showed a bioavailability of 6%. With `C[C@@H]1O[C@@H](O[C@@H]2C=C3CC[C@@H]4[C@H](CC[C@]5(C)[C@@H](c6ccc(=O)oc6)CC[C@]45O)[C@@]3(C)CC2)[C@H](O)[C@H](O)[C@H]1O` [PROSCILLARIDIN] the bioavailability was 7%. With `NC(=O)c1ncn([C@@H]2O[C@H](CO)[C@@H](O)[C@H]2O)n1` [RIBAVIRIN] the bioavailability was 64%. In the case of `Cc1nc2n(c(=O)c1CCN1CCC(c3noc4cc(F)ccc34)CC1)CCCC2` [RISPERIDONE], the bioavailability is reported as 70%.

Same assay, conditions: in vivo, F
Compound `CN(C)CCCN1c2ccccc2CCc2ccccc21` [IMIPRAMINE] has a bioavailability of 42%. Compound `CCC(C)n1ncn(-c2ccc(N3CCN(c4ccc(OC[C@H]5CO[C@](Cn6cncn6)(c6ccc(Cl)cc6Cl)O5)cc4)CC3)cc2)c1=O` (stereo partly specified) [ITRACONAZOLE] has a bioavailability of 55%. In the case of `Nc1ccn([C@@H]2CS[C@H](CO)O2)c(=O)n1` [LAMIVUDINE], the bioavailability is reported as 86%. `N#Cc1ccc(C(c2ccc(C#N)cc2)n2cncn2)cc1` [LETROZOLE] showed a bioavailability of 99.9%. `C#C[C@]1(O)CC[C@H]2[C@@H]3CCC4=CC(=O)CC[C@@H]4[C@H]3CC[C@@]21CC` [LEVONORGESTREL] showed a bioavailability of 87%. Compound `C=C1c2cccc(O)c2C(=O)C2=C(O)[C@]3(O)C(=O)C(C(N)=O)=C(O)[C@@H](N(C)C)[C@@H]3[C@@H](O)[C@H]12` [METHACYCLINE] has a bioavailability of 58%. For `Cn1cc[nH]c1=S` [METHIMAZOLE], the bioavailability was 93%. `CN(Cc1cnc2nc(N)nc(N)c2n1)c1ccc(C(=O)N[C@@H](CCC(=O)O)C(=O)O)cc1` [METHOTREXATE] gave a bioavailability of 70%. `C[C@H]1C[C@@H]2[C@H]([C@@H](O)C[C@@]3(C)[C@H]2CC[C@]3(O)C(=O)CO)[C@@]2(C)C=CC(=O)C=C12` [METHYLPREDNISOLONE] showed a bioavailability of 82%. Compound `CS(=O)(=O)c1ccc2c(c1)N(CCCN1CCC(C(N)=O)CC1)c1ccccc1S2` [METOPIMAZINE] has a bioavailability of 19%. `Cc1[nH]c(=O)c(C#N)cc1-c1ccncc1` [MILRINONE] showed a bioavailability of 92%. Compound `CN(C)c1ccc(O)c2c1C[C@H]1C[C@H]3[C@H](N(C)C)C(O)=C(C(N)=O)C(=O)[C@@]3(O)C(O)=C1C2=O` [MINOCYCLINE] has a bioavailability of 97.5%. With `CCOC(=O)[C@H](CCc1ccccc1)N[C@@H](C)C(=O)N1Cc2cc(OC)c(OC)cc2C[C@H]1C(=O)O` [MOEXIPRIL] the bioavailability was 13%. For `CC(C)(O)c1ccccc1CC[C@@H](SCC1(CC(=O)O)CC1)c1cccc(/C=C/c2ccc3ccc(Cl)cc3n2)c1` [MONTELUKAST], the bioavailability was 73%. Compound `COc1c(C)c2c(c(O)c1C/C=C(\C)CCC(=O)O)C(=O)OC2` [MYCOPHENOLIC ACID] has a bioavailability of 72%. Compound `O=C1CN(/N=C/c2ccc([N+](=O)[O-])o2)C(=O)N1` [NITROFURANTOIN] has a bioavailability of 87%. Compound `CNC(=C[N+](=O)[O-])NCCSCc1csc(CN(C)C)n1` [NIZATIDINE] has a bioavailability of 70%. Compound `C#C[C@]1(O)CC[C@H]2[C@@H]3CCC4=CC(=O)CC[C@@H]4[C@H]3CC[C@@]21C` [NORETHINDRONE] has a bioavailability of 64%. In the case of `CNC/C=C(\c1ccc(Br)cc1)c1cccnc1` [NORZIMELIDINE], the bioavailability is reported as 66%. With `CCCc1nc(C(C)(C)O)c(C(=O)O)n1Cc1ccc(-c2ccccc2-c2nnn[nH]2)cc1` [OLMESARTAN] the bioavailability was 26%. In the case of `CN(C)[C@@H]1C(O)=C(C(N)=O)C(=O)[C@@]2(O)C(O)=C3C(=O)c4c(O)cccc4[C@@](C)(O)[C@H]3[C@H](O)[C@@H]12` [OXYTETRACYCLINE], the bioavailability is reported as 58%. Compound `COc1ccnc(C[S+]([O-])c2nc3ccc(OC(F)F)cc3[nH]2)c1OC` (stereo unspecified) [PANTOPRAZOLE] has a bioavailability of 77%. Compound `CC1(C)S[C@@H]2[C@H](NC(=O)Cc3ccccc3)C(=O)N2[C@H]1C(=O)O` [PENICILLIN G] has a bioavailability of 22.5%. Work on `O=C1NC(=O)C(c2ccccc2)(c2ccccc2)N1` [PHENYTOIN] yielded a bioavailability of 90%. `CN(C)S(=O)(=O)c1ccc2c(c1)N(CCCN1CCC(CCO)CC1)c1ccccc1S2` [PIPOTIAZINE] gave a bioavailability of 26%. In the case of `O=C(O)Cc1nn(-c2ccc(F)cc2)cc1-c1ccc(Cl)cc1` [PIRAZOLAC], the bioavailability is reported as 93.5%. With `CN1C(C(=O)Nc2ccccn2)=C(O)c2ccccc2S1(=O)=O` [PIROXICAM] the bioavailability was 100%. With `CC[C@H](C)C(=O)O[C@H]1C[C@H](O)C=C2C=C[C@H](C)[C@H](CC[C@@H](O)C[C@@H](O)CC(=O)O)[C@H]21` [PRAVASTATIN] the bioavailability was 17%. `COc1cc2nc(N3CCN(C(=O)c4ccco4)CC3)nc(N)c2cc1OC` [PRAZOSIN] gave a bioavailability of 68%. For `C[C@]12C=CC(=O)C=C1CC[C@@H]1[C@@H]2[C@@H](O)C[C@@]2(C)[C@H]1CC[C@]2(O)C(=O)COP(=O)(O)O` [PREDNISOLONE PHOSPHORIC ACID], the bioavailability was 82%. In the case of `C[C@]12C=CC(=O)C=C1CC[C@@H]1[C@@H]2C(=O)C[C@@]2(C)[C@H]1CC[C@]2(O)C(=O)CO` [PREDNISONE], the bioavailability is reported as 80%. For `CCC1(c2ccccc2)C(=O)NCNC1=O` [PRIMIDONE], the bioavailability was 92%. `CCN(CC)CCNC(=O)c1ccc(N)cc1` [PROCAINAMIDE] gave a bioavailability of 83%. With `CCCc1cc(=O)[nH]c(=S)[nH]1` [PROPYLTHIOURACIL] the bioavailability was 78%. For `CNCCCC1c2ccccc2C=Cc2ccccc21` [PROTRIPTYLINE], the bioavailability was 85%. In the case of `C=C[C@H]1C[N@@]2CC[C@H]1C[C@@H]2[C@@H](O)c1ccnc2ccc(OC)cc12` [QUINIDINE], the bioavailability is reported as 75%. Compound `CC(C)(C)NC[C@@H](O)COc1cccc2c1C[C@H](O)[C@H](O)C2` [R-NADOLOL] has a bioavailability of 34%. For `O=C(c1ccc(OCCN2CCCCC2)cc1)c1c(-c2ccc(O)cc2)sc2cc(O)ccc12` [RALOXIFENE], the bioavailability was 2%. For `CCOc1cc(CC(=O)N[C@@H](CC(C)C)c2ccccc2N2CCCCC2)ccc1C(=O)O` [REPAGLINIDE], the bioavailability was 56%. With `CO[C@H]1/C=C/O[C@@]2(C)Oc3c(C)c(O)c4c(O)c(c(/C=N/N5CCN(C)CC5)c(O)c4c3C2=O)NC(=O)/C(C)=C\C=C\[C@H](C)[C@H](O)[C@@H](C)[C@@H](O)[C@@H](C)[C@H](OC(C)=O)[C@@H]1C` [RIFAMPIN] the bioavailability was 88.8%. Work on `CN(C)CCc1c[nH]c2ccc(Cn3cncn3)cc12` [RIZATRIPTAN] yielded a bioavailability of 45%. `CS(=O)(=O)c1ccc(C2=C(c3ccccc3)C(=O)OC2)cc1` [ROFECOXIB] gave a bioavailability of 93%. `CCCN(CCC)CCc1cccc2c1CC(=O)N2` [ROPINIROLE] gave a bioavailability of 55%. Compound `CC(C)(C)NC[C@H](O)COc1cccc2c1C[C@H](O)[C@H](O)C2` [S-NADOLOL] has a bioavailability of 34%. `Cc1cccc(C)c1NC(=O)[C@H](C)N` [S-TOCAINIDE] showed a bioavailability of 89%. Compound `O=C1NS(=O)(=O)c2ccccc21` [SACCHARIN] has a bioavailability of 84%. Compound `CO[C@H]1C[C@@H]2CC[C@@H](C)[C@@](O)(O2)C(=O)C(=O)N2CCCC[C@H]2C(=O)O[C@H]([C@H](C)C[C@@H]2CC[C@@H](O)[C@H](OC)C2)CC(=O)[C@H](C)/C=C(\C)[C@@H](O)[C@@H](OC)C(=O)[C@H](C)C[C@H](C)/C=C/C=C/C=C/1C` [SIROLIMUS] has a bioavailability of 14%. With `CC(=O)S[C@@H]1CC2=CC(=O)CC[C@]2(C)[C@H]2CC[C@@]3(C)[C@@H](CC[C@@]34CCC(=O)O4)[C@H]12` [SPIRONOLACTONE] the bioavailability was 25%. For `Cc1cn([C@H]2C=C[C@@H](CO)O2)c(=O)[nH]c1=O` [STAVUDINE], the bioavailability was 82%. `C=CC[C@@H]1/C=C(\C)C[C@H](C)C[C@H](OC)[C@H]2O[C@@](O)(C(=O)C(=O)N3CCCC[C@H]3C(=O)O[C@H](/C(C)=C/[C@@H]3CC[C@@H](O)[C@H](OC)C3)[C@H](C)[C@@H](O)CC1=O)[C@H](C)C[C@@H]2OC` [TACROLIMUS ANHYDROUS] showed a bioavailability of 17%. Work on `C[C@@H](C(=O)O)c1ccc(-c2ccccc2)c(F)c1` [TARENFLURBIL] yielded a bioavailability of 92%. In the case of `Cc1scc2c1N(C(=O)CN1CCN(C)CC1)c1ccccc1NC2=O` [TELENZEPINE], the bioavailability is reported as 54%. `CC[C@H]1OC(=O)[C@H](C)C(=O)[C@H](C)[C@@H](O[C@@H]2O[C@H](C)C[C@H](N(C)C)[C@H]2O)[C@](C)(OC)C[C@@H](C)C(=O)[C@H](C)[C@H]2N(CCCCn3cnc(-c4cccnc4)c3)C(=O)O[C@]12C` [TELITHROMYCIN] showed a bioavailability of 57%.
